# Activity calls are given as the source filed them. The rule behind the calls is not given here.
# Test system: cell viability, luminescent cytotoxicity assay
# Assay: cell-killing effect of antagonist analogs – luminescence, set 2, cytotoxicity control for Gli-SUFU antagonist project, SAR follow-up (AID 651859)
row,SMILES,IC50
1,N#Cc1ccc(C(=O)Nc2cc(N3CCCCC3)ncn2)cc1,> 11.7 µM (inactive)
2,O=C(Nc1cc(N2CCOCC2)ncn1)c1ccccc1,> 11.7 µM (inactive)
3,CC1CCCCN1c1cc(NC(=O)c2ccccc2)ncn1 (stereo not drawn),> 11.7 µM (inactive)
4,COc1ccccc1C(=O)Nc1cc(N2CCCCC2)ncn1,> 11.7 µM (inactive)
5,O=C(Nc1cc(N2CCCCC2)ncn1)c1ccc(C(F)(F)F)cc1,> 11.7 µM (inactive)
6,O=C(Nc1cc(N2CCCCC2)ncn1)c1ccsc1,> 11.7 µM (inactive)
7,CC(C)CNc1cc(NC(=O)c2ccccc2)ncn1,> 11.7 µM (inactive)
8,O=C(Nc1cc(N2CCCCC2)ncn1)c1ccccc1,> 11.7 µM (inactive)
9,Cc1ccc(C(=O)Nc2cc(N3CCCCC3)ncn2)cc1,> 11.7 µM (inactive)
10,CCCCNc1cc(NC(=O)c2ccccc2)ncn1,> 11.7 µM (inactive)
11,N#Cc1cccc(C(=O)Nc2cc(N3CCCCC3)ncn2)c1,> 11.7 µM (inactive)
12,CC(C)(C)Nc1cc(NC(=O)c2ccccc2)ncn1,> 11.7 µM (inactive)
13,O=C(Nc1cc(N2CCCCCC2)ncn1)c1ccccc1,> 11.7 µM (inactive)
14,O=C(Nc1cc(N2CCCCC2)ncn1)c1cccs1,> 11.7 µM (inactive)
15,O=C(Nc1cc(N2CCNCC2)ncn1)c1ccccc1,> 11.7 µM (inactive)
16,CC1CCN(c2cc(NC(=O)c3ccccc3)ncn2)CC1,> 11.7 µM (inactive)
17,O=C(Nc1cc(N2CCCCC2)ncn1)c1ccccc1C(F)(F)F,> 11.7 µM (inactive)

row,SMILES,IC50
1,CC(C)Nc1cc(NC(=O)c2ccccc2)ncn1,> 11.7 µM (inactive)
2,O=C(Nc1cc(N2CCCCC2)ncn1)c1ccc2ccccc2c1,> 11.7 µM (inactive)
3,O=C(Nc1cc(NCC2CCCO2)ncn1)c1ccccc1 (stereo not drawn),> 11.7 µM (inactive)
4,CCCCN(C)c1cc(NC(=O)c2ccccc2)ncn1,> 11.7 µM (inactive)
5,O=C(Nc1cc(N2CCCCC2)ncn1)c1ccc(Cl)cc1,> 11.7 µM (inactive)
6,CC(C)(C)OC(=O)N1CCN(c2cc(NC(=O)c3ccccc3)ncn2)CC1,> 11.7 µM (inactive)
7,CCC(C)Nc1cc(NC(=O)c2ccccc2)ncn1 (stereo not drawn),> 11.7 µM (inactive)
8,CCOc1ccc(-c2nc(CSCC(=O)NC3CC3)c(C)o2)cc1,> 11.7 µM (inactive)
9,O=C(Nc1cc(N2CCCCC2)ncn1)c1ccco1,> 11.7 µM (inactive)
10,O=C(Nc1cc(N2CCCCC2)ncn1)c1cccc2ccccc12,> 11.7 µM (inactive)
11,CCOc1ccc(S(=O)(=O)NCc2ccncc2)cc1NC(=O)c1ccccc1,> 11.7 µM (inactive)
12,CN1CCN(c2cc(NC(=O)c3ccccc3)ncn2)CC1,> 11.7 µM (inactive)
13,O=C(Nc1cc(N2CCSCC2)ncn1)c1ccccc1,> 11.7 µM (inactive)
14,O=C(Nc1cc(N2CCCCC2)ncn1)c1cc2ccccc2s1,> 11.7 µM (inactive)
15,O=C(Nc1cc(N2CCCCC2)ncn1)c1ccccc1Cl,> 11.7 µM (inactive)
16,COc1cccc(C(=O)Nc2cc(N3CCCCC3)ncn2)c1,> 11.7 µM (inactive)

# Reference: PubChem BioAssay AID651859 (Sanford-Burnham Center for Chemical Genomics, 2012)
